{"source": "paper PMC10666548", "about": "“Identification of the bacterial metabolite aerugine as potential trigger of human dopaminergic neurodegeneration” (Environment international, 2023)", "key": {"HepG2": {"system": "HepG2", "assay": "Cell line viability, resazurin reduction, 72 h", "type": "cell-based, human", "conditions": "HepG2, 72 h, at <100 μM", "procedure": "(§1) Hek293FT were acquired from ThermoFisher Scientific (cat. no. R70007). HepG2 were acquired from ATCC (HB-8065). HeLa were acquired from ATCC (CCL-2). The cell culture was performed as described previously ([Dolde et al., 2021]). Briefly, the cell lines were kept in DMEM Glutamax with 10% FCS and 1% penicillin/streptomycin at 37 °C with 5% CO2. They were grown in normal cell culture flasks (Sarstedt) to 75–90% confluence and seeded into standard 96-well plates 24 h prior to compound treatment. The cells were treated by performing a medium change to Advanced DMEM/F12 supplemented with 2 mM L-glutamine containing the indicated compound concentrations.\n(§2) The assay was performed as described previously ([Schildknecht et al., 2009]). In brief, cells were stained with 10 μg/ml resazurin and incubated for 30 min at 37 °C and 5% CO2. The fluorescence of resazurin was detected with an excitation wavelength of 530 nm, using a 590 nm long-pass filter to record the emission.\n(§3) Fig. 3. Cell type specificity of aerugine cytotoxicity. A Cultures of LUHMES neurons were used on d0 (proliferating, blue), d2 (immature, black) or d6 (mature, red) of differentiation for cytotoxicity testing. Cells were exposed to nine serial dilutions of synthetic aerugine. The cell viability was assessed 24 h later by calcein-AM & H-33342 staining and high content imaging. […] Dotted lines at 4 μM indicate the average EC50 for mature LUHMES. […] They were treated for 72 h with synthetic aerugine. The overall cell viability was assessed by measuring resazurin reduction in technical triplicates. Data are presented as means ± range of two biological replicates (different experiments). C Three iPSC-derived neuronal cell types were treated for 24 h with synthetic aerugine. The cell viability was assessed 24 h later by calcein-AM & H-33342 staining and high content imaging. Data are presented as means ± SEM of three biological replicates (different experiments). D Lack of cytotoxic or bacteriostatic effects of aerugine (20 μM) on exemplary gram-positive and gram-negative microbes: The growth characteristics of Enterococcus faecalis (gram-positive) and Neisseria gonorrhoeae MS11 (gram-negative) were followed during the log growth phase in their respective culture media. Data are from one biological replicate."}, "HeLa": {"system": "HeLa", "assay": "Cell line viability, resazurin reduction, 72 h", "type": "cell-based, human", "conditions": "at <100 μM", "procedure": "as §1, §2, §3"}, "Hek293FT": {"system": "Hek293FT", "assay": "Cell line viability, resazurin reduction, 72 h", "type": "cell-based, human", "conditions": "at <100 μM", "procedure": "as §1, §2, §3"}, "[1]": {"system": "dopamine neurons of C. elegans BY200", "assay": "C. elegans dopaminergic neurodegeneration scoring (GFP-labelled neurons)", "type": "in vivo, Caenorhabditis elegans", "conditions": "48 h exposure", "procedure": "The strain BY200 Pdat-1::gfp (vtIs1), dat-1::GFP(vtls1) was kindly provided by the Blakely laboratory, Vanderbilt University Medical Center and the strain Punc-25:GFP was obtained from the Caenorhabditis Genetics Center (CGC, University of Minnesota, Minneapolis, MN, USA). The worms were maintained in nematode growth medium (NGM) plates that contain: 3 g/l NaCl, 17 g/l agar, 2.5 g/l peptone, 1 mM CaCl2, 5 mg/l cholesterol, 1 mM MgSO4, 25 mM potassium phosphate buffer (pH 6.0) with 1.25 ml nystatin and 50 mg/l streptomycin sulfate) and Escherichia coli (E. coli) OP50 strain was used as food ([Brenner, 1974]). […]\nOn day 2 and day 8, approximately, 20–30 worms per treatment were picked onto slides prepped with a 3% agarose pad, anesthetized with 5 μl of 3 mM levamisole hydrochloride ([Sulston et al., 1975]) and observed under an Olympus BX41 fluorescence microscope to determine morphology status according to novel Likert-like scale of degeneration as previously described ([Benedetto et al., 2010]).\nFig. 5. […] They were exposed to different aerugine concentrations and counted every 24 h. […] Differences on a given day were analyzed by ANOVA and found to be non-significant. […] The GFP-labelled neurons of 20–30 worms per condition were analyzed and scored for specific neurodegeneration. […] These scores were assessed to quantify the dopaminergic neurodegeneration caused be aerugine in vivo. […]"}}, "note": "Entries after “also recorded” stand apart in the source; their conditions may differ."}
{"smiles": "OCC1CSC(c2ccccc2O)=N1", "note": "(centres unmarked) [aerugine, 2-[4-(hydroxymethyl)-4,5-dihydro-1,3-thiazol-2-yl]phenol]", "values": [{"measurement": "toxicity (overall cell viability, resazurin reduction)", "setting": "HepG2", "result": "no toxicity was observed"}, {"measurement": "toxicity (overall cell viability, resazurin reduction)", "setting": "HepG2; listed as Aerugine", "result": "non-toxic"}, {"measurement": "toxicity (overall cell viability, resazurin reduction)", "setting": "HeLa", "result": "no toxicity was observed"}, {"measurement": "toxicity (overall cell viability, resazurin reduction)", "setting": "HeLa; listed as Aerugine", "result": "non-toxic"}, {"measurement": "toxicity (overall cell viability, resazurin reduction)", "setting": "Hek293FT", "result": "no toxicity was observed"}, {"measurement": "toxicity (overall cell viability, resazurin reduction)", "setting": "Hek293FT; listed as Aerugine", "result": "non-toxic"}, {"measurement": "DAergic neurons that lost their normal (fully) healthy phenotype", "setting": "[1]", "result": "Up to 50%"}, {"measurement": "degeneration of DA neurons", "setting": "[1]; L4 worms", "result": "concentration-dependent degeneration of DA neurons; also recorded: specific neurodegeneration was observed"}]}
